Results from patent US20230398130A1, “METHODS AND COMPOSITIONS FOR DIFFERENTIATING STEM CELLS” (Massachusetts Institute of Technology, priority 2020, published 2023).

Key:
ISC-enriched organoids [1] = assay: Primary screen, 384-well 2.5-D organoid differentiation (ENR+CD, 6 days): basal lysozyme secretion (LYZ.NS); format: cell-based, murine; conditions: for Dose.FC.LYZ.NS / Z.LYZ.NS: primary screen; for Dose.FC.LYZ.NS: ENR+CD 6 days, FC vs plate median; for Z.LYZ.NS: standard z score of FC
Source text: (§1) High-throughput screening.

ISC-enriched organoids [2] = assay: Primary screen, 384-well 2.5-D organoid differentiation (ENR+CD, 6 days): carbachol-induced lysozyme secretion (LYZ.S); format: cell-based, murine; conditions: for Dose.FC.LYZ.S: primary screen, ENR+CD 6 days, FC vs plate median
Source text: as §1

ISC-enriched organoids [3] = assay: Primary screen, 384-well 2.5-D organoid differentiation (ENR+CD, 6 days, Target Selective Inhibitor Library, vs whole-plate median): ATP (CellTiter-Glo 3D, CTG); conditions: for Dose.FC.CTG / Z.CTG: primary screen; for Dose.FC.CTG: ENR+CD 6 days, FC vs plate median; for Z.CTG: standard z score of FC
[4] = dose 0.08 uM (1st of 4 lines per treatment; dose not printed in this part)
[5] = dose 0.40 uM (2nd of 4 lines per treatment; dose not printed in this part)
[6] = dose 2.00 uM (3rd of 4 lines per treatment; dose not printed in this part)
[7] = dose 10.00 uM (4th of 4 lines per treatment; dose not printed in this part)

SMILES	SSMD.LYZ.NS_Rep (strictly standardized mean difference) (ISC-enriched organoids [1]; [4])	SSMD.LYZ.NS_Rep (strictly standardized mean difference) (ISC-enriched organoids [1]; [5])	SSMD.LYZ.NS_Rep (strictly standardized mean difference) (ISC-enriched organoids [1]; [6])	SSMD.LYZ.NS_Rep (strictly standardized mean difference) (ISC-enriched organoids [1]; [7])	Dose.FC.LYZ.NS (ISC-enriched organoids [1]; dose 0.08 uM)	Z.LYZ.NS (ISC-enriched organoids [1]; dose 0.08 uM)	Dose.FC.LYZ.NS (ISC-enriched organoids [1]; dose 0.40 uM)	Z.LYZ.NS (ISC-enriched organoids [1]; dose 0.40 uM)	Dose.FC.LYZ.NS (ISC-enriched organoids [1]; dose 2.00 uM)	Z.LYZ.NS (ISC-enriched organoids [1]; dose 2.00 uM)	Dose.FC.LYZ.NS (ISC-enriched organoids [1]; dose 10.00 uM)	Z.LYZ.NS (ISC-enriched organoids [1]; dose 10.00 uM)	SSMD.LYZ.S_Rep (strictly standardized mean difference) (ISC-enriched organoids [2]; [4])	Z.LYZ.S (standard z score) (ISC-enriched organoids [2]; [4])	SSMD.LYZ.S_Rep (strictly standardized mean difference) (ISC-enriched organoids [2]; [5])	Z.LYZ.S (standard z score) (ISC-enriched organoids [2]; [5])	SSMD.LYZ.S_Rep (strictly standardized mean difference) (ISC-enriched organoids [2]; [6])	Z.LYZ.S (standard z score) (ISC-enriched organoids [2]; [6])	SSMD.LYZ.S_Rep (strictly standardized mean difference) (ISC-enriched organoids [2]; [7])	Z.LYZ.S (standard z score) (ISC-enriched organoids [2]; [7])	further results
CN1CCc2cc3c(cc2[C@H]1[C@@H]1OC(=O)c2c1ccc1c2OCO1)OCO3 [(+)-Bicuculline]	0.481	0.106	0.276	0.175	0.092 log 2 fold change	0.805	0.013 log 2 fold change	0.116	0.031 log 2 fold change	0.270	0.020 log 2 fold change	0.176	0.545	1.005	0.216	0.221	−0.164	−0.169	0.264	0.465	Dose.FC.LYZ.S (ISC-enriched organoids [2]; dose 0.08 uM): 0.155 log 2 fold change; Dose.FC.LYZ.S (ISC-enriched organoids [2]; dose 0.40 uM): 0.034 log 2 fold change; Dose.FC.LYZ.S (ISC-enriched organoids [2]; dose 2.00 uM): −0.026 log 2 fold change; Dose.FC.LYZ.S (ISC-enriched organoids [2]; dose 10.00 uM): 0.072 log 2 fold change; SSMD.CTG_Rep (strictly standardized mean difference) (ISC-enriched organoids [3]; [4]): 0.472; SSMD.CTG_Rep (strictly standardized mean difference) (ISC-enriched organoids [3]; [5]): −0.078; SSMD.CTG_Rep (strictly standardized mean difference) (ISC-enriched organoids [3]; [6]): −0.237; SSMD.CTG_Rep (strictly standardized mean difference) (ISC-enriched organoids [3]; [7]): −0.405; Dose.FC.CTG (ISC-enriched organoids [3]; dose 0.08 uM): 0.318 log 2 fold change; Z.CTG (ISC-enriched organoids [3]; dose 0.08 uM): 0.760; Dose.FC.CTG (ISC-enriched organoids [3]; dose 0.40 uM): −0.029 log 2 fold change; Z.CTG (ISC-enriched organoids [3]; dose 0.40 uM): −0.069; Dose.FC.CTG (ISC-enriched organoids [3]; dose 2.00 uM): −0.166 log 2 fold change; Z.CTG (ISC-enriched organoids [3]; dose 2.00 uM): −0.396; Dose.FC.CTG (ISC-enriched organoids [3]; dose 10.00 uM): −0.132 log 2 fold change; Z.CTG (ISC-enriched organoids [3]; dose 10.00 uM): −0.315
C[C@H](Oc1cc(-c2cnn(C3CCNCC3)c2)cnc1N)c1c(Cl)ccc(F)c1Cl [(S)-crizotinib]	0.838	0.094	−0.229	−0.438	0.193 log 2 fold change	1.679	0.009 log 2 fold change	0.081	−0.034 log 2 fold change	−0.294	−0.068 log 2 fold change	−0.588	0.881	0.808	0.084	0.103	−0.343	−0.383	−0.491	−0.720	Dose.FC.LYZ.S (ISC-enriched organoids [2]; dose 0.08 uM): 0.125 log 2 fold change; Dose.FC.LYZ.S (ISC-enriched organoids [2]; dose 0.40 uM): 0.016 log 2 fold change; Dose.FC.LYZ.S (ISC-enriched organoids [2]; dose 2.00 uM): −0.059 log 2 fold change; Dose.FC.LYZ.S (ISC-enriched organoids [2]; dose 10.00 uM): −0.111 log 2 fold change; SSMD.CTG_Rep (strictly standardized mean difference) (ISC-enriched organoids [3]; [4]): 0.742; SSMD.CTG_Rep (strictly standardized mean difference) (ISC-enriched organoids [3]; [5]): 0.190; SSMD.CTG_Rep (strictly standardized mean difference) (ISC-enriched organoids [3]; [6]): 0.285; SSMD.CTG_Rep (strictly standardized mean difference) (ISC-enriched organoids [3]; [7]): 0.034; Dose.FC.CTG (ISC-enriched organoids [3]; dose 0.08 uM): 0.241 log 2 fold change; Z.CTG (ISC-enriched organoids [3]; dose 0.08 uM): 0.575; Dose.FC.CTG (ISC-enriched organoids [3]; dose 0.40 uM): 0.054 log 2 fold change; Z.CTG (ISC-enriched organoids [3]; dose 0.40 uM): 0.130; Dose.FC.CTG (ISC-enriched organoids [3]; dose 2.00 uM): 0.111 log 2 fold change; Z.CTG (ISC-enriched organoids [3]; dose 2.00 uM): 0.266; Dose.FC.CTG (ISC-enriched organoids [3]; dose 10.00 uM): 0.019 log 2 fold change; Z.CTG (ISC-enriched organoids [3]; dose 10.00 uM): 0.046
C=C1C(=O)O[C@H]2[C@H]1CC/C(C)=C/CC[C@@]1(C)O[C@@H]21 [(−)-Parthenolide]	0.601	0.480	0.920	0.998	0.058 log 2 fold change	0.506	0.067 log 2 fold change	0.583	0.089 log 2 fold change	0.776	0.133 log 2 fold change	1.159	0.679	0.799	0.763	1.067	0.506	0.441	0.345	0.530	Dose.FC.LYZ.S (ISC-enriched organoids [2]; dose 0.08 uM): 0.124 log 2 fold change; Dose.FC.LYZ.S (ISC-enriched organoids [2]; dose 0.40 uM): 0.165 log 2 fold change; Dose.FC.LYZ.S (ISC-enriched organoids [2]; dose 2.00 uM): 0.068 log 2 fold change; Dose.FC.LYZ.S (ISC-enriched organoids [2]; dose 10.00 uM): 0.082 log 2 fold change; SSMD.CTG_Rep (strictly standardized mean difference) (ISC-enriched organoids [3]; [4]): 0.498; SSMD.CTG_Rep (strictly standardized mean difference) (ISC-enriched organoids [3]; [5]): 0.736; SSMD.CTG_Rep (strictly standardized mean difference) (ISC-enriched organoids [3]; [6]): 0.482; SSMD.CTG_Rep (strictly standardized mean difference) (ISC-enriched organoids [3]; [7]): 0.257; Dose.FC.CTG (ISC-enriched organoids [3]; dose 0.08 uM): 0.135 log 2 fold change; Z.CTG (ISC-enriched organoids [3]; dose 0.08 uM): 0.322; Dose.FC.CTG (ISC-enriched organoids [3]; dose 0.40 uM): 0.228 log 2 fold change; Z.CTG (ISC-enriched organoids [3]; dose 0.40 uM): 0.544; Dose.FC.CTG (ISC-enriched organoids [3]; dose 2.00 uM): 0.157 log 2 fold change; Z.CTG (ISC-enriched organoids [3]; dose 2.00 uM): 0.376; Dose.FC.CTG (ISC-enriched organoids [3]; dose 10.00 uM): 0.157 log 2 fold change; Z.CTG (ISC-enriched organoids [3]; dose 10.00 uM): 0.374
N#Cc1c(O)c2c(-c3ccc(-c4ccccc4O)cc3)csc2[nH]c1=O [A-769662]	0.286	0.498	0.554	0.068	0.045 log 2 fold change	0.394	0.069 log 2 fold change	0.599	0.054 log 2 fold change	0.473	0.009 log 2 fold change	0.075	0.365	0.426	0.472	0.460	0.488	1.191	0.119	0.121	Dose.FC.LYZ.S (ISC-enriched organoids [2]; dose 0.08 uM): 0.066 log 2 fold change; Dose.FC.LYZ.S (ISC-enriched organoids [2]; dose 0.40 uM): 0.071 log 2 fold change; Dose.FC.LYZ.S (ISC-enriched organoids [2]; dose 2.00 uM): 0.184 log 2 fold change; Dose.FC.LYZ.S (ISC-enriched organoids [2]; dose 10.00 uM): 0.019 log 2 fold change; SSMD.CTG_Rep (strictly standardized mean difference) (ISC-enriched organoids [3]; [4]): −0.255; SSMD.CTG_Rep (strictly standardized mean difference) (ISC-enriched organoids [3]; [5]): 0.019; SSMD.CTG_Rep (strictly standardized mean difference) (ISC-enriched organoids [3]; [6]): −0.312; SSMD.CTG_Rep (strictly standardized mean difference) (ISC-enriched organoids [3]; [7]): −0.056; Dose.FC.CTG (ISC-enriched organoids [3]; dose 0.08 uM): −0.074 log 2 fold change; Z.CTG (ISC-enriched organoids [3]; dose 0.08 uM): −0.177; Dose.FC.CTG (ISC-enriched organoids [3]; dose 0.40 uM): 0.007 log 2 fold change; Z.CTG (ISC-enriched organoids [3]; dose 0.40 uM): 0.016; Dose.FC.CTG (ISC-enriched organoids [3]; dose 2.00 uM): −0.127 log 2 fold change; Z.CTG (ISC-enriched organoids [3]; dose 2.00 uM): −0.304; Dose.FC.CTG (ISC-enriched organoids [3]; dose 10.00 uM): −0.015 log 2 fold change; Z.CTG (ISC-enriched organoids [3]; dose 10.00 uM): −0.036
